Test systems include COLO 205 colon; 786-0 renal; OVCAR-8 ovarian; HCT-15 colon; SR leukemia; SK-MEL-2 melanoma; RPMI-8226 leukemia; M14 melanoma; HOP-92 NSCLC; MDA-N; HT29 colon.
What all share (test): DTP human tumour cell line panel, 48 h

Molecules are shown by their SMILES.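 Interpolation was linear, between the two tested concentrations surrounding the appropriate level; five concentrations were tested over 48 hours in 96-well plates. TGI denotes the concentration required for complete inhibition of growth.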

As a reminder, the TGI is the concentration at which net growth stops. As to `CSc1cc(N)ccc1N=Nc1ccc(S(N)(=O)=O)cc1`, the TGI in the experiment with COLO 205 colon is 71.3 µM; with 786-0 renal, 76.8 µM; in the experiment on OVCAR-8 ovarian, 53.6 µM; in the experiment with HCT-15 colon it was 62.9 µM; in the experiment on SR leukemia, above 100 µM; in the experiment on SK-MEL-2 melanoma it was 62.3 µM. The concentration for total growth inhibition (TGI) in the experiment on RPMI-8226 leukemia is 38.4 µM; in the experiment with M14 melanoma it was above 100 µM; in the experiment on HOP-92 NSCLC, 68.2 µM; in the experiment with MDA-N, above 100 µM; in the experiment with HT29 colon, above 100 µM.

With `CN(Cc1cnc2nc(N)nc(N)c2n1)c1ccc(C(=O)NC(CCC(=O)NC(P(=O)(O)O)P(=O)(O)O)C(=O)O)cc1` (stereo unspecified), the TGI in the experiment with COLO 205 colon, with 786-0 renal, with OVCAR-8 ovarian, in the experiment with HCT-15 colon, with SR leukemia and in the experiment with SK-MEL-2 melanoma was above 100 µM in each case. The TGI with RPMI-8226 leukemia, with M14 melanoma, in the experiment on HOP-92 NSCLC, in the experiment on MDA-N and in the experiment on HT29 colon was above 100 µM in each case.

As for `CC(=O)N1CCN(C23OC4(N5CCN(C(C)=O)CC5)C5C6CC(C7C6C4C72)C53)CC1` (stereo unspecified), the TGI with COLO 205 colon, in the experiment on 786-0 renal, in the experiment on OVCAR-8 ovarian, in the experiment with HCT-15 colon, in the experiment with SR leukemia and with SK-MEL-2 melanoma was above 100 µM each time. The TGI in the experiment on RPMI-8226 leukemia, with M14 melanoma, in the experiment on HOP-92 NSCLC, with MDA-N and in the experiment with HT29 colon was above 100 µM throughout.

In the case of `CSC1=NS(=O)(=O)c2cc(C(=O)NN(C)C(=O)c3cc4c(cc3Cl)SC(SC)=NS4(=O)=O)c(Cl)cc2S1`, the TGI in the experiment on COLO 205 colon, in the experiment with 786-0 renal, in the experiment on OVCAR-8 ovarian, in the experiment on HCT-15 colon, in the experiment with SR leukemia and with SK-MEL-2 melanoma was above 10 µM each time. For the same molecule, the total growth inhibition concentration (TGI) with RPMI-8226 leukemia, in the experiment on M14 melanoma, in the experiment with HOP-92 NSCLC, with MDA-N and in the experiment on HT29 colon was above 10 µM each time.

For `CCOC(=O)C(/C=N\C(=S)Nc1ccc(OCC)cc1)=C(/O)c1ccccc1`, the TGI with COLO 205 colon, in the experiment with 786-0 renal, in the experiment on OVCAR-8 ovarian, with HCT-15 colon, with SR leukemia and in the experiment on SK-MEL-2 melanoma was above 100 µM each time. Also, the TGI was above 100 µM in the experiment on RPMI-8226 leukemia; above 100 µM in the experiment on M14 melanoma; 67.8 µM in the experiment on HOP-92 NSCLC; above 100 µM with MDA-N; above 100 µM in the experiment on HT29 colon.

Regarding `C[C@]12CC[C@@H]3c4ccc(OC(=O)c5ccccc5)cc4CC[C@H]3[C@@H]1CC[C@@H]2Oc1c2ccccc2nc2ccccc12`, the TGI with COLO 205 colon is above 50 µM; in the experiment with 786-0 renal, 14.3 µM; in the experiment with OVCAR-8 ovarian, 45 µM; in the experiment on HCT-15 colon, 31.5 µM; with SR leukemia, above 50 µM; with SK-MEL-2 melanoma, above 50 µM. Besides, the TGI came to 18.1 µM in the experiment on RPMI-8226 leukemia; 15.9 µM with M14 melanoma; 36.9 µM with HOP-92 NSCLC; 11.6 µM in the experiment on MDA-N; 12.6 µM in the experiment with HT29 colon.

Take `NC(N)=NS(=O)(=O)c1ccc(NC(=O)c2ccc3nc4ccccc4c(Nc4ccc(S(N)(=O)=O)cc4)c3c2)cc1`: the TGI in the experiment with COLO 205 colon, with 786-0 renal, in the experiment with OVCAR-8 ovarian, with HCT-15 colon, with SR leukemia and in the experiment with SK-MEL-2 melanoma was above 100 µM in each case. In addition, the TGI with RPMI-8226 leukemia, in the experiment with M14 melanoma, in the experiment with HOP-92 NSCLC, in the experiment on MDA-N and in the experiment with HT29 colon was above 100 µM throughout.

In the case of `CC1(COS(=O)(=O)OCC2(C)COS(=O)(=O)OC2)COS(=O)(=O)OC1`, the TGI in the experiment on COLO 205 colon was above 100 µM; in the experiment on 786-0 renal it was above 100 µM; with OVCAR-8 ovarian, above 100 µM; in the experiment on HCT-15 colon, above 100 µM; in the experiment on SR leukemia it was above 56.9 µM; in the experiment on SK-MEL-2 melanoma it was above 100 µM. Moreover, the TGI with RPMI-8226 leukemia was above 50.1 µM; with M14 melanoma, above 100 µM; in the experiment with HOP-92 NSCLC, above 63.8 µM; with MDA-N, above 100 µM; in the experiment on HT29 colon, above 69.6 µM.

Take `[N-]=[N+]=Nc1ccc(CNc2cc(=O)[nH]c(=O)[nH]2)cc1`: the TGI in the experiment on COLO 205 colon, in the experiment with 786-0 renal, in the experiment with OVCAR-8 ovarian, in the experiment on HCT-15 colon, with SR leukemia and with SK-MEL-2 melanoma was above 100 µM in each case. The TGI in the experiment with RPMI-8226 leukemia, with M14 melanoma, with HOP-92 NSCLC, with MDA-N and in the experiment with HT29 colon was above 100 µM each time.

Turning to `COc1cc(S(=O)(=O)Nc2ccc(-c3csc(N4C(=O)CSC4c4ccccc4)n3)cc2)ccc1Cl` (stereo unspecified), the total growth inhibition concentration (TGI) in the experiment with COLO 205 colon, in the experiment on 786-0 renal, in the experiment on OVCAR-8 ovarian, with HCT-15 colon, in the experiment on SR leukemia and in the experiment on SK-MEL-2 melanoma was above 100 µM each time. Further, the TGI with RPMI-8226 leukemia is 89.3 µM; in the experiment with M14 melanoma it was above 100 µM; in the experiment on HOP-92 NSCLC it was 54.4 µM; in the experiment on MDA-N, above 100 µM; in the experiment on HT29 colon it was above 100 µM.

Turning to `O=c1oc2ccc(Cl)cc2cc1-c1cn2cc(Cl)ccc2n1`, the TGI in the experiment with COLO 205 colon, in the experiment with 786-0 renal, in the experiment on OVCAR-8 ovarian, in the experiment with HCT-15 colon, in the experiment on SR leukemia and in the experiment with SK-MEL-2 melanoma was above 100 µM in each case. Moreover, the TGI is above 100 µM with RPMI-8226 leukemia; above 100 µM with M14 melanoma; above 100 µM in the experiment with HOP-92 NSCLC; 2.79 µM in the experiment with MDA-N; above 58.8 µM with HT29 colon.

The record behind these values is PubChem BioAssay (NCI).
